Toxic doses and inconclusive results are not listed. Cut-off read from the data, not from the text of the source: active = T/C of 150% or more; inactive = T/C below 125%.
Test system: L1210 leukemia ip in BDF1 mice, survival T/C
Assay: NCI In Vivo Anticancer Drug Screen. Data for tumor model L1210 Leukemia (intraperitoneal) in B6D2F1 (BDF1) mice
Settings: endpoint: mean survival time, higher = longer survival
Outline: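 Transplantable tumor model; survival measured in treated vs vehicle control mice. Value = treated/control.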

[1] = dose: 100.0 mg/kg/injection, schedule: Q01DX001 (ip), vehicle: saline
[2] = dose: 200.0 mg/kg/injection, schedule: Q01DX001 (ip), vehicle: saline
[3] = dose: 400.0 mg/kg/injection, schedule: Q01DX001 (ip), vehicle: saline
[4] = dose: 100.0 mg/kg/injection, schedule: Q04DX003 (ip), vehicle: saline
[5] = dose: 200.0 mg/kg/injection, schedule: Q04DX003 (ip), vehicle: saline
[6] = dose: 400.0 mg/kg/injection, schedule: Q04DX003 (ip), vehicle: saline
[7] = dose: 50.0 mg/kg/injection, schedule: Q01DX001 (ip), vehicle: Klucel (hydroxypropylcellulose) (HPC)
[8] = dose: 100.0 mg/kg/injection, schedule: Q01DX001 (ip), vehicle: Klucel (hydroxypropylcellulose) (HPC)
[9] = dose: 200.0 mg/kg/injection, schedule: Q01DX001 (ip), vehicle: Klucel (hydroxypropylcellulose) (HPC)
[10] = dose: 100.0 mg/kg/injection, schedule: Q01DX009 (ip), vehicle: saline with Tween-80
[11] = dose: 200.0 mg/kg/injection, schedule: Q01DX009 (ip), vehicle: saline with Tween-80
[12] = dose: 400.0 mg/kg/injection, schedule: Q01DX009 (ip), vehicle: saline with Tween-80
[13] = dose: 100.0 mg/kg/injection, schedule: Q01DX009 (ip), vehicle: Klucel (hydroxypropylcellulose) (HPC)
[14] = dose: 100.0 mg/kg/injection, schedule: Q04DX003 (ip), vehicle: Klucel (hydroxypropylcellulose) (HPC)
[15] = dose: 200.0 mg/kg/injection, schedule: Q01DX009 (ip), vehicle: Klucel (hydroxypropylcellulose) (HPC)
[16] = dose: 200.0 mg/kg/injection, schedule: Q04DX003 (ip), vehicle: Klucel (hydroxypropylcellulose) (HPC)
[17] = dose: 400.0 mg/kg/injection, schedule: Q04DX003 (ip), vehicle: Klucel (hydroxypropylcellulose) (HPC)

Measured: T/C

O=C(Nc1ccn(C2OC(CO)C(O)C2O)c(=O)n1)c1ccccc1 (centres undefined)
inactive: [1] 97 % of control | [2] 97 % of control | [3] 86 % of control

COc1ccc(C(=O)C(O)O)cc1
inactive: dose: 100.0 mg/kg/injection, schedule: Q01DX009 (ip), vehicle: saline 100 % of control | [4] 103 % of control | dose: 200.0 mg/kg/injection, schedule: Q01DX009 (ip), vehicle: saline 96 % of control | [5] 98 % of control | dose: 400.0 mg/kg/injection, schedule: Q01DX009 (ip), vehicle: saline 112 % of control | [6] 103 % of control

CC1(C)c2ccccc2C(C)(C)[N+]1(C)C
inactive: dose: 100.0 mg/kg/injection, schedule: Q01DX001 (ip), vehicle: other 101 % of control

CN(C)CCOC(=O)c1ccc(C=O)cc1
inactive: dose: 100.0 mg/kg/injection, schedule: Q04DX002 (ip), vehicle: saline 105 % of control | dose: 200.0 mg/kg/injection, schedule: Q04DX002 (ip), vehicle: saline 110 % of control | dose: 400.0 mg/kg/injection, schedule: Q04DX002 (ip), vehicle: saline 90 % of control

O=C1C(c2ccccc2)=CC(c2ccccc2)=C1c1ccccc1
inactive: dose: 50.0 mg/kg/injection, schedule: Q01DX001 (ip), vehicle: carboxymethylcellulose (CMC) 91 % of control | dose: 100.0 mg/kg/injection, schedule: Q01DX001 (ip), vehicle: carboxymethylcellulose (CMC) 91 % of control | dose: 200.0 mg/kg/injection, schedule: Q01DX001 (ip), vehicle: carboxymethylcellulose (CMC) 94 % of control | dose: 400.0 mg/kg/injection, schedule: Q01DX001 (ip), vehicle: carboxymethylcellulose (CMC) 94 % of control

O=c1[nH]c(C(F)(F)F)c(CCCCc2ccccc2)c(=O)[nH]1
inactive: [7] 105 % of control | [8] 94 % of control | [9] 90 % of control

CCC1(C)CCC2C(=CCC3C(C)(C(=O)O)CCCC23C)C1 (centres undefined)
inactive: [10] 91 % of control | [11] 93 % of control | [12] 86 % of control

CN(CCc1cnc2nc(N)nc(N)c2n1)c1ccc(C(=O)NC(CCC(=O)O)C(=O)O)cc1 (centres undefined)
inactive: dose: 12.5 mg/kg/injection, schedule: Q01DX009 (ip), vehicle: Klucel (hydroxypropylcellulose) (HPC) 113 % of control | dose: 25.0 mg/kg/injection, schedule: Q01DX009 (ip), vehicle: Klucel (hydroxypropylcellulose) (HPC) 118 % of control | [4] 110 % of control | [5] 105 % of control

COc1ccc(-n2c(=O)c(N=Nc3ccc(Cl)cc3)c(O)n(-c3ccccc3OC)c2=S)cc1
inactive: [7] 110 % of control | [8] 102 % of control | [9] 100 % of control

C=CCNC(=S)Nc1ccc(C)cc1
inactive: dose: 50.0 mg/kg/injection, schedule: Q01DX009 (ip), vehicle: Klucel (hydroxypropylcellulose) (HPC) 95 % of control | [13] 97 % of control | [14] 103 % of control | [15] 100 % of control | [16] 101 % of control | [17] 88 % of control

COc1ccc(C(=O)CCC(=O)O)c2ccccc12
inactive: [14] 92 % of control | [16] 93 % of control | [17] 88 % of control

CC1CC(C)(C)N=C(C(C)CC(C)(C)C)O1 (centres undefined)
inactive: [4] 105 % of control | [5] 94 % of control

C=CCc1ccc(OC(=O)Nc2ccc(S(=O)(=O)N(C)C)cc2)c(OC)c1
inactive: [1] 94 % of control | [2] 91 % of control | [3] 91 % of control

COC(=O)CCNC(=O)C1CSC(C)(C)N1C=O (centres undefined)
inactive: [4] 97 % of control | [5] 97 % of control | [6] 90 % of control

COc1ccc(/C=C(C(=O)O)/C(=C/c2ccc(OC)c(OC)c2)C(=O)O)cc1OC
inactive: [13] 96 % of control | [14] 95 % of control | [15] 105 % of control | [16] 96 % of control | dose: 400.0 mg/kg/injection, schedule: Q01DX009 (ip), vehicle: Klucel (hydroxypropylcellulose) (HPC) 91 % of control | [17] 98 % of control

CC1=CC(C)(C)NC(=S)N1CCO
inactive: dose: 74.0 mg/kg/injection, schedule: Q01DX Z (ip), vehicle: methylcellulose (MC) 91 % of control | dose: 100.0 mg/kg/injection, schedule: Q04DX002 (ip), vehicle: Klucel (hydroxypropylcellulose) (HPC) 104 % of control | dose: 200.0 mg/kg/injection, schedule: Q04DX002 (ip), vehicle: Klucel (hydroxypropylcellulose) (HPC) 107 % of control

ON=C(c1ccc(Cl)cc1)c1ccc(Cl)cc1
inactive: [10] 95 % of control | [11] 93 % of control | [12] 93 % of control

Reference: PubChem BioAssay AID248 (DTP/NCI, 2004)
